In article PMC10291553, “Exploring Structure–Activity Relationships in Photodynamic Therapy Anticancer Agents Based on Ir(III)-COUPY Conjugates” (Journal of Medicinal Chemistry, 2023):
Like-named read-outs stand apart in the source and are kept apart here.

Test system: A2780cis cells
Experiment: Photo- and cytotoxic activity determination (MTT), A2780cis cells, normoxia or hypoxia
Type: cell-based
Details: A2780cis; for inhibition at 250 µM: 2 h incubation in the dark, 48 h drug-free recovery
Text: Having shown that the Ir(III)-COUPY conjugates can sensitize both type I and II ROS through spectroscopic techniques and readily internalize into living cells, their photocytotoxicity was screened in various cancer cell lines. This screening included two representative melanoma cell lines (human A375 and […] human SK-MEL-28) and cancer cells with resistance to the clinical drug cisplatin. For the latter, both sensitive and cisplatin-resistant ovarian cancer cells (A2780 and A2780cis) as well as HeLa cells, which also show a degree of chemoresistance to the platinum anticancer drug in vitro,[54] were used. For the determination of dark and light cytotoxicity, dose–response curves were assayed from both conditions to provide the correspondent IC50 values, which correspond to the concentration needed for inhibition of cell growth by 50%. Phototherapeutic index (PI) was calculated as the ratio of dark to light IC50 value for each compound.
A375, HeLa, and SK-MEL-28 cells were cultured in Dulbecco’s modified Eagle medium (DMEM) supplemented with 10% FBS, L-glutamine, and 1% penicillin–streptomycin. A2780 and A2780cis cells were grown in RPMI-1640 cell medium supplemented with 10% fetal bovine serum (FBS) and 2 mM L-glutamine. Acquired resistance to cisplatin in the A2780cis cell line was maintained by adding cisplatin 1 μM to culture medium every second passage. Cells were cultured in a humidified incubator at 310 K with 5% CO2 atmosphere and subcultured two or three times a week with appropriate densities and were confirmed to be mycoplasma-free using a standard Hoechst DNA staining method.
A2780, A2780cis, HeLa, A375, and SK-MEL-28 cells were maintained at logarithmic growth-phase and cultured in 96-well plates at a density of 5000 cells/well in complete medium for 24 h at 310 K, 5% CO2 in a humidified incubator. For hypoxia experiments, a hypoxia condition was set up by Tissue Culture Service at University of Murcia using nitrogen (N2) to displace O2 down to a minimum of 2% in a Forma Steri-Cycle i160 incubator (Thermo Fisher Scientific). […] A light-based treatment schedule was performed as follows: 1 h incubation with the compounds in the dark, followed by 1 h incubation under irradiation conditions by placing the Photoreactor EXPO-LED from Luzchem (Canada) fitted with green lamps (final light intensity applied of 1.5 mW/cm^2 at λmax = 520 nm) inside the CO2 incubator. All the cell culture plates subjected to light irradiation included untreated controls to verify that cell viability was not affected by light. Then, treatment-containing media was removed, and fresh media was added for a 48 h cell recovery period; the temperature throughout the experiment remained at 310 K. Dark control samples were placed in the same dark conditions and then kept incubated for 1 h in the dark in the humidified CO2 incubator. Medium was then aspirated by suction, cells were loaded with 50 μL of MTT solution (1 mg/mL) for additional 4 h and then removed, and 50 μL of DMSO was added to solubilize the purple formazan crystals formed in active cells. The absorbance was measured at 570 nm using a microplate reader (FLUOstar Omega), and the IC50 values were calculated based on the inhibitory rate curves using the following equation [drawing 4] 4 where I represents the percentage inhibition of viability observed, Imax is the maximal inhibitory effect, IC50 is the concentration that inhibits 50% of maximal growth, C is the concentration of the treatment, and n is the slope of the semi-logarithmic dose–response sigmoidal curves. The non-linear fitting was performed using SigmaPlot 14.0 software. All experiments were performed in three independent studies with n = 3 replicates per concentration level. For a detailed phototoxicity procedure, ref ([43]) includes technical explanations.

For `NCC(=O)CCC(=O)O` [5-ALA, 5-aminolevulinic acid, reference compound], the inhibition at 250 µM (hypoxia, read-out: Partial inhibition (% of cell growth inhibition with respect to untreated controls), Hypoxia) was 1 ± 0.2%, the inhibition at 250 µM (normoxia, read-out: Partial inhibition (% of cell growth inhibition with respect to untreated controls), Normoxia) was 3.5 ± 0.4% and the IC50 (hypoxia 2% O2, 1 h incubation + 1 h green light 520 nm, 48 h drug-free, read-out: Hypoxia 520 nm IC50) was greater than 250 µM. It also gave an IC50 (hypoxia 2% O2, dark, tested up to 250 μM, read-out: Hypoxia Dark IC50) greater than 250 µM, an IC50 (hypoxia, 520 nm, read-out: A2780cis Light 520 nm IC50 (microM) Hypoxia) greater than 250 µM and an IC50 (hypoxia, dark, read-out: A2780cis Dark IC50 (microM) Hypoxia) greater than 250 µM. The “Normoxia PI (phototherapeutic index)” value (normoxia 21% O2, 520 nm, dark tested up to 250 μM) was greater than 4.0, the IC50 (normoxia 21% O2, dark, tested up to 250 μM, read-out: Normoxia Dark IC50) was greater than 250 µM and the IC50 (normoxia, 520 nm, read-out: A2780cis Light 520 nm IC50 (microM) Normoxia) was 62 ± 12 µM. The IC50 (normoxia, dark, up to 250 microM, read-out: A2780cis Dark IC50 (microM) Normoxia) was greater than 250 µM.
